{"source": "patent US7914831B2", "about": "“Synergistic anti-inflammatory pharmaceutical compositions and related methods using curcuminoids or methylxanthines” (priority 2004, dated 2011)", "system": "PGE2 production", "type": "cell-based, murine", "details": "Mus musculus, RAW264.7; RAW 264.7, test material 60 min prior to 1.0 μg/mL LPS, PGE2 18 h post stimulation; read-out: IC50 (median inhibitory concentration for PGE2)", "data": [{"smiles": "Cn1c(=O)c2c(ncn2C)n(C)c1=O", "note": "[Caffeine, caffeine]", "values": [{"measurement": "IC50", "value": 25, "unit": "µg/mL"}]}]}
